According to US6355799B1, “Substituted benzene compounds, process for their preparation, and herbicidal and defoliant compositions containing them” (ISK Americas Incorporated, priority 1997, dated 2002):

Legend:
Format in all cases: in vivo
[1] = test system: johnsongrass (Sorghum halepense, SORHA); experiment: Pre-emerge test, greenhouse herbicide activity screening; conditions: rated 14 days after application, 0 = no damage, 100 = complete death
Procedure, shortened: (§1)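 Rating: 0–100 visual injury, 14 DAA. Application: acetone, 187 l/ha, 15–1000 g ai/ha, flat-fan track sprayer with nozzle 40–45 cm above soil or canopy. Post-emerge runs used 0.25% v/v surfactant on 2–3 leaf plants.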

[2] = test system: ivyleaf morningglory (Ipomoea hederacea, IPOHE); experiment: as above; conditions: rated 14 days after application, 0 = no damage, 100 = complete death
Procedure, shortened: as §1

[3] = test system: barnyardgrass (Echinochloa crus-galli, ECHCG); experiment: as above; conditions: rated 14 days after application, 0 = no damage, 100 = complete death
Procedure, shortened: as §1

[4] = test system: velvetleaf (Abutilon theophrasti, ABUTH); experiment: as above; conditions: rated 14 days after application, 0 = no damage, 100 = complete death
Procedure, shortened: as §1

[5] = test system: green foxtail (Setaria viridis, SETVI); experiment: as above; conditions: rated 14 days after application, 0 = no damage, 100 = complete death
Procedure, shortened: as §1

[6] = test system: lambsquarters (Chenopodium album, CHEAL); experiment: as above; conditions: rated 14 days after application, 0 = no damage, 100 = complete death
Procedure, shortened: as §1

[7] = test system: sicklepod (Cassia obtusifolia, CASOB); experiment: as above; conditions: rated 14 days after application, 0 = no damage, 100 = complete death
Procedure, shortened: as §1

[8] = test system: large crabgrass (Digitaria sanguinalis, DIGSA); experiment: as above; conditions: rated 14 days after application, 0 = no damage, 100 = complete death
Procedure, shortened: as §1

[9] = test system: common ragweed (Ambrosia artemisizfolia L., AMBEL); experiment: as above; conditions: rated 14 days after application, 0 = no damage, 100 = complete death
Procedure, shortened: as §1

[10] = test system: redroot pigweed (Amaranthus retroflexus, AMARE); experiment: as above; conditions: rated 14 days after application, 0 = no damage, 100 = complete death
Procedure, shortened: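 Sandy loam pots; pre-emerge: sown 1 d pre-spray, surface-watered after, then bottom-watered. Post-emerge: sown 8–21 d before, 2–3 leaf stage, + 0.25% v/v NIS, bottom-watered. Acetone, 187 l/ha track spray, 15–1000 g ai/ha. 0–100 injury score, day 14.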

[11] = test system: field corn (Zea mays L., var. Dekalb 535, CORN); experiment: Post-emerge test, crop safety; conditions: 14 days after application; for phytotoxicity rating CORN: post-emerge, rating scale 0-100
Procedure, shortened: (§2)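 Plants grown in 10 cm pots of sandy loam mix received acetone-dissolved compounds through a moving flat-fan nozzle. Doses ranged from 15 to 1000 g ai/ha. Pre-emerge pots were seeded one day earlier, post-emerge pots 8–21 days earlier. Fourteen days on, each pot was graded 0–100 for damage.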

[12] = test system: upland rice (Oryza sp., var. Tebonnet, RICE); experiment: Post-emerge test, crop safety; conditions: 14 days after application; for phytotoxicity rating RICE: post-emerge, rating scale 0-100
Procedure, shortened: as §2

[13] = test system: redroot pigweed (Amaranthus retroflexus, AMARE); experiment: Post-emerge test, greenhouse herbicide activity screening; conditions: 14 days after application; for phytotoxicity rating AMARE: post-emerge, rating scale 0-100
Procedure, shortened: (§3)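 Compounds in acetone were track-sprayed at 15-1000 g ai/ha (187 l/ha) on sandy loam pots: pre-emerge one day after seeding, post-emerge at 2-3 leaf stage with 0.25% v/v non-ionic surfactant. Phytotoxicity was rated 14 days later on a 0 (no damage) to 100 (complete death) scale.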

[14] = test system: johnsongrass (Sorghum halepense, SORHA); experiment: as above; conditions: 14 days after application; for phytotoxicity rating SORHA: post-emerge, rating scale 0-100
Procedure, shortened: as §3

[15] = test system: ivyleaf morningglory (Ipomoea hederacea, IPOHE); experiment: as above; conditions: 14 days after application; for phytotoxicity rating IPOHE: post-emerge, rating scale 0-100
Procedure, shortened: as §3

[16] = test system: barnyardgrass (Echinochloa crus-galli, ECHCG); experiment: as above; conditions: 14 days after application; for phytotoxicity rating ECHCG: post-emerge, rating scale 0-100
Procedure, shortened: as §3

[17] = test system: velvetleaf (Abutilon theophrasti, ABUTH); experiment: as above; conditions: 14 days after application; for phytotoxicity rating ABUTH: post-emerge, rating scale 0-100
Procedure, shortened: as §3

[18] = test system: green foxtail (Setaria viridis, SETVI); experiment: as above; conditions: 14 days after application; for phytotoxicity rating SETVI: post-emerge, rating scale 0-100
Procedure, shortened: as §3

[19] = test system: lambsquarters (Chenopodium album, CHEAL); experiment: as above; conditions: 14 days after application; for phytotoxicity rating CHEAL: post-emerge, rating scale 0-100
Procedure, shortened: as §3

[20] = test system: sicklepod (Cassia obtusifolia, CASOB); experiment: as above; conditions: 14 days after application; for phytotoxicity rating CASOB: post-emerge, rating scale 0-100
Procedure, shortened: as §3

[21] = test system: large crabgrass (Digitaria sanguinalis, DIGSA); experiment: as above; conditions: 14 days after application; for phytotoxicity rating DIGSA: post-emerge, rating scale 0-100
Procedure, shortened: as §3

[22] = test system: common ragweed (Ambrosia artemisizfolia L., AMBEL); experiment: as above; conditions: 14 days after application; for phytotoxicity rating AMBEL: post-emerge, rating scale 0-100
Procedure, shortened: as §3

[23] = test system: field corn (Zea mays L., var. Dekalb 535, CORN); experiment: Pre-emerge test, crop safety; conditions: rated 14 days after application, 0 = no damage, 100 = complete death
Procedure, shortened: (§4)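 Compounds in acetone were track-sprayed at 187 l/ha, 15–1000 g ai/ha, onto sandy loam pots. Pre-emerge seeds were sown one day before spraying, with surface watering afterwards. Post-emerge plants were at the 2–3 leaf stage and sprayed with 0.25% v/v non-ionic surfactant. Injury was rated 0–100 at 14 days.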

[24] = test system: upland rice (Oryza sp., var. Tebonnet, RICE); experiment: Pre-emerge test, crop safety; conditions: rated 14 days after application, 0 = no damage, 100 = complete death
Procedure, shortened: as §4

[25] = 63 g ai/ha, phytotoxicity rating 0-100 (0 no damage, 100 complete death)

Question: What does the source list for COc1c(Cl)cc(F)c(-n2c(=O)cc(C(F)(F)F)n(N)c2=O)c1NC(=O)c1ccc(F)cc1F [2-44]?
Answer: Pre-emerge Herbicidal Activity, phytotoxicity rating (0-100), SORHA ([1]; 63 g ai/ha): 50; Pre-emerge Herbicidal Activity, phytotoxicity rating (0-100), SORHA ([1]; 250 g ai/ha): 95; Pre-emerge Herbicidal Activity, phytotoxicity rating (0-100), IPOHE ([2]; 63 g ai/ha): 90; Pre-emerge Herbicidal Activity, phytotoxicity rating (0-100), IPOHE ([2]; 250 g ai/ha): 100; Pre-emerge Herbicidal Activity, phytotoxicity rating (0-100), ECHCG ([3]; 63 g ai/ha): 30; Pre-emerge Herbicidal Activity, phytotoxicity rating (0-100), ECHCG ([3]; 250 g ai/ha): 99; Pre-emerge Herbicidal Activity, phytotoxicity rating (0-100), ABUTH ([4]; 63 g ai/ha): 100; Pre-emerge Herbicidal Activity, phytotoxicity rating (0-100), ABUTH ([4]; 250 g ai/ha): 100; Pre-emerge Herbicidal Activity, phytotoxicity rating (0-100), SETVI ([5]; 63 g ai/ha): 90; Pre-emerge Herbicidal Activity, phytotoxicity rating (0-100), SETVI ([5]; 250 g ai/ha): 100; Pre-emerge Herbicidal Activity, phytotoxicity rating (0-100), CHEAL ([6]; 63 g ai/ha): 100; Pre-emerge Herbicidal Activity, phytotoxicity rating (0-100), CHEAL ([6]; 250 g ai/ha): 100; Pre-emerge Herbicidal Activity, phytotoxicity rating (0-100), CASOB ([7]; 63 g ai/ha): 60; Pre-emerge Herbicidal Activity, phytotoxicity rating (0-100), CASOB ([7]; 250 g ai/ha): 100; Pre-emerge Herbicidal Activity, phytotoxicity rating (0-100), DIGSA ([8]; 63 g ai/ha): 60; Pre-emerge Herbicidal Activity, phytotoxicity rating (0-100), DIGSA ([8]; 250 g ai/ha): 100; Pre-emerge Herbicidal Activity, phytotoxicity rating (0-100), AMBEL ([9]; 63 g ai/ha): 100; Pre-emerge Herbicidal Activity, phytotoxicity rating (0-100), AMBEL ([9]; 250 g ai/ha): 100; Pre-emerge Herbicidal Activity, phytotoxicity rating (0-100), AMARE ([10]; 63 g ai/ha): 100; Pre-emerge Herbicidal Activity, phytotoxicity rating (0-100), AMARE ([10]; 250 g ai/ha): 100; phytotoxicity rating CORN ([11]; 63 g ai/ha): 0; phytotoxicity rating CORN ([11]; 250 g ai/ha): 20; phytotoxicity rating RICE ([12]; 63 g ai/ha): 0; phytotoxicity rating RICE ([12]; 250 g ai/ha): 10; phytotoxicity rating AMARE ([13]; 63 g ai/ha): 50; phytotoxicity rating AMARE ([13]; 250 g ai/ha): 90; phytotoxicity rating SORHA ([14]; 63 g ai/ha): 0; phytotoxicity rating SORHA ([14]; 250 g ai/ha): 30; phytotoxicity rating IPOHE ([15]; 63 g ai/ha): 50; phytotoxicity rating IPOHE ([15]; 250 g ai/ha): 100; phytotoxicity rating ECHCG ([16]; 63 g ai/ha): 0; phytotoxicity rating ECHCG ([16]; 250 g ai/ha): 10; phytotoxicity rating ABUTH ([17]; 63 g ai/ha): 100; phytotoxicity rating ABUTH ([17]; 250 g ai/ha): 100; phytotoxicity rating SETVI ([18]; 63 g ai/ha): 0; phytotoxicity rating SETVI ([18]; 250 g ai/ha): 50; phytotoxicity rating CHEAL ([19]; 63 g ai/ha): 60; phytotoxicity rating CHEAL ([19]; 250 g ai/ha): 90; phytotoxicity rating CASOB ([20]; 63 g ai/ha): 20; phytotoxicity rating CASOB ([20]; 250 g ai/ha): 70; phytotoxicity rating DIGSA ([21]; 63 g ai/ha): 0; phytotoxicity rating DIGSA ([21]; 250 g ai/ha): 10; phytotoxicity rating AMBEL ([22]; 63 g ai/ha): 60; phytotoxicity rating AMBEL ([22]; 250 g ai/ha): 90; Pre-emerge phytotoxicity rating (0-100), crop damage, CORN ([23]; 63 g ai/ha): 10; Pre-emerge phytotoxicity rating (0-100), crop damage, CORN ([23]; 250 g ai/ha): 70; Pre-emerge phytotoxicity rating (0-100), crop damage, RICE ([24]; 63 g ai/ha): 20; Pre-emerge phytotoxicity rating (0-100), crop damage, RICE ([24]; 250 g ai/ha): 80

Question: Which results are given for COc1c(Cl)cc(F)c(-n2c(=O)c([N+](=O)[O-])c(C(F)(F)F)n(C)c2=O)c1[N+](=O)[O-] [Compound 1-9]?
Answer: Pre-emerge Herbicidal Activity SORHA (phytotoxicity rating, scale 0-100) ([1]; 63 g ai/ha, pre-emerge): 100; Pre-emerge Herbicidal Activity IPOHE (phytotoxicity rating, scale 0-100) ([2]; 63 g ai/ha, pre-emerge): 100; Pre-emerge Herbicidal Activity ECHCG (phytotoxicity rating, scale 0-100) ([3]; 63 g ai/ha, pre-emerge): 100; Pre-emerge Herbicidal Activity ABUTH (phytotoxicity rating, scale 0-100) ([4]; 63 g ai/ha, pre-emerge): 100; Pre-emerge Herbicidal Activity SETVI (phytotoxicity rating, scale 0-100) ([5]; 63 g ai/ha, pre-emerge): 100; Pre-emerge Herbicidal Activity CHEAL (phytotoxicity rating, scale 0-100) ([6]; 63 g ai/ha, pre-emerge): 100; Pre-emerge Herbicidal Activity CASOB (phytotoxicity rating, scale 0-100) ([7]; 63 g ai/ha, pre-emerge): 100; Pre-emerge Herbicidal Activity DIGSA (phytotoxicity rating, scale 0-100) ([8]; 63 g ai/ha, pre-emerge): 100; Pre-emerge Herbicidal Activity AMBEL (phytotoxicity rating, scale 0-100) ([9]; 63 g ai/ha, pre-emerge): 100; Pre-emerge Herbicidal Activity AMARE (phytotoxicity rating, scale 0-100) ([10]; 63 g ai/ha, pre-emerge): 100; Post-emerge Herbicidal Activity CORN (crop damage) [11, 25]: 30; Post-emerge Herbicidal Activity RICE (crop damage) [12, 25]: 40; Post-emerge Herbicidal Activity AMARE [13, 25]: 100; Post-emerge Herbicidal Activity SORHA [14, 25]: 90; Post-emerge Herbicidal Activity IPOHE [15, 25]: 100; Post-emerge Herbicidal Activity ECHCG [16, 25]: 70; Post-emerge Herbicidal Activity ABUTH [17, 25]: 100; Post-emerge Herbicidal Activity SETVI [18, 25]: 90; Post-emerge Herbicidal Activity CHEAL [19, 25]: 100; Post-emerge Herbicidal Activity CASOB [20, 25]: 90; Post-emerge Herbicidal Activity DIGSA [21, 25]: 90; Post-emerge Herbicidal Activity AMBEL [22, 25]: 90; Pre-emerge crop damage CORN (phytotoxicity rating, scale 0-100) ([23]; 63 g ai/ha, pre-emerge): 90; Pre-emerge crop damage RICE (phytotoxicity rating, scale 0-100) ([24]; 63 g ai/ha, pre-emerge): 95
